Assay results published in the supplement of paper PMC11208160.

Test: recombinant barcode read abundance after kanamycin selection (control-corrected) (log10(CPM+1)); higher = more efficient recombination; sequences stand for … in AGTGCAGAGAAAATCGGCCAGTTTTCTCTGCCTGCAGTCCGCATGCCGT…ATTTATGCAGCGGACTGCCTTTCTCCCAAAGTGATAAACCGGACAGTATCATGGACCGGTTTTCCCGGTAATCCGTATTTGCAAGGTTGGTTTCACT; site = the 11-nt target
Procedure, shortened: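 For this pooled screen, each oligo contained a promoter, a target, a barcode and the J23119-driven first 104 bases of the bridge RNA. Gibson cloning placed it into a vector supplying the remaining 73 bp and a T7-inducible recombinase, and the pool was co-electroporated into E. coli with a donor plasmid. Recombination efficiency is derived from barcode counts per million at recombinant junctions after averaging and control correction, and is expressed on a log scale as log10(CPM+1), with selection on chloramphenicol/ampicillin/kanamycin plus 0.1 mM IPTG against a chloramphenicol/ampicillin LB agar control.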

Sequence | recombinant barcode read abundance (log10)
TTATAAACTTGGGTTCTAACCTGTTGCCTCG [TTATAAACTAG_LTGcore_CT_RTGcore_CG] (site TTATAAACTAG) (LTG core: CT, RTG core: CG) | 0.154
TTATAAACTTGGGTTCTAACCTGTTGCCTGC [TTATAAACTAG_LTGcore_CT_RTGcore_GC] (site TTATAAACTAG) (LTG core: CT, RTG core: GC) | 0.178
TTATAAACTTGGGTTCTAACCTGTTGCCTTG [TTATAAACTAG_LTGcore_CT_RTGcore_CA] (site TTATAAACTAG) (LTG core: CT, RTG core: CA) | 0.173
TTATAAAGATGGGTTCTAACCTGTTGCCTTC [TTATAAACTAG_LTGcore_GA_RTGcore_GA] (site TTATAAACTAG) (LTG core: GA, RTG core: GA) | 0.0936
TTATAAAGGTGGGTTCTAACCTGTTGCCTCC [TTATAAACTAG_LTGcore_GG_RTGcore_GG] (site TTATAAACTAG) (LTG core: GG, RTG core: GG) | 0.154
TTATAAATCTGGGTTCTAACCTGTTGCCTGA [TTATAAACTAG_LTGcore_TC_RTGcore_TC] (site TTATAAACTAG) (LTG core: TC, RTG core: TC) | 0.244
